Read-outs that look alike come from different tables or passages of the source. One block for each compound: values may come before it.
Molecular target: T1, rabKCC1 (Oryctolagus cuniculus, UniProt Q28677)
T1 construct: a full-length rabbit KCC1 cDNA was subcloned into pGEMHE; expressed in transfected cells; host or cells: Xenopus laevis oocytes injected with cRNA
T1 sequence (Q28677 1-1085): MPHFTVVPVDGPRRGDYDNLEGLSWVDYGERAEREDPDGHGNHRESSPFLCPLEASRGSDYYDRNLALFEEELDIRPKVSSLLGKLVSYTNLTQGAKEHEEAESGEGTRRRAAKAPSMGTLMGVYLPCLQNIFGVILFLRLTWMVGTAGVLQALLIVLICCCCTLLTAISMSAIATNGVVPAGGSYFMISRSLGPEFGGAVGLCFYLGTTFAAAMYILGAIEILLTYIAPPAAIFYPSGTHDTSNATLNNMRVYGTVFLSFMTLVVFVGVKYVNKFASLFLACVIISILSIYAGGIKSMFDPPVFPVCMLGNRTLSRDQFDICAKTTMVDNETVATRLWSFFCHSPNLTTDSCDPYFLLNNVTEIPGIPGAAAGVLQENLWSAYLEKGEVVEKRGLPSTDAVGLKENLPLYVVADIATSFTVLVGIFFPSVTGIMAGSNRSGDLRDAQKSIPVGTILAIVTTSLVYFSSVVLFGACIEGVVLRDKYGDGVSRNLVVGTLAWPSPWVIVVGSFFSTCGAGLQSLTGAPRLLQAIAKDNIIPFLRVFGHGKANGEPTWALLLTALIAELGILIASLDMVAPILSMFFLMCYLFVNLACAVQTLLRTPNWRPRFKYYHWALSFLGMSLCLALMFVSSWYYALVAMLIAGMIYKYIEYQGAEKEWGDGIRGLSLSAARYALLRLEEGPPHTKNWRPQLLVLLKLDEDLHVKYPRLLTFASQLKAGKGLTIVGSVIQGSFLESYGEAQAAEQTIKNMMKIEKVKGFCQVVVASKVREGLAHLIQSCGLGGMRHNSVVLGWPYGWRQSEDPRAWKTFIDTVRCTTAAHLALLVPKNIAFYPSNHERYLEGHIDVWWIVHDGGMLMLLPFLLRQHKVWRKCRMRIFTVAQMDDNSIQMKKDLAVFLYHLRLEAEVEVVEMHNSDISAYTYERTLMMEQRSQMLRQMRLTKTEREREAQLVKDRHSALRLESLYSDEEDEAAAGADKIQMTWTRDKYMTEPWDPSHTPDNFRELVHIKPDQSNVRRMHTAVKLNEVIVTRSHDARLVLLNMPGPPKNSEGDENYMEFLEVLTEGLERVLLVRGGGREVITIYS
Test: 86Rb+ uptake (K+-Cl- cotransport) in Xenopus oocytes injected with rabKCC1 cRNA
Format: cell-based, rabbit
Conditions: for effect on activation of KCC1 by cell swelling: calyculin A 100 nM, okadaic acid 1 nM, cypermethrin 100 pM; for KCC1 function remaining: 100 μM DIDS; for KCC1 function (86Rb+ uptake, % of control): 2 mM diuretic
Experimental: On the next day, defolliculated stage V–VI oocytes were injected with 50 nl of water or a solution containing cRNA at a concentration of 0.25–0.5 μg/μl (25 ng/oocyte). […] The incubation medium was changed every 24 hours.
For functional comparison with mKCC4, a full-length rabbit KCC1 cDNA was subcloned into pGEMHE. […] To prepare a template for cRNA, the rabbit KCC1 and […] cDNAs were linearized at the 3′-end using NheI, and cRNA was transcribed in vitro using the T7 RNA polymerase and the mMESSAGE mMACHINE kit (Ambion, Inc. of Austin, Tex.). Transcription product integrity was confirmed on agarose gels, and concentration was determined by absorbance reading at 260 nm (DU 640 available from Beckman of Fullerton, Calif.).
K^+—Cl^− cotransport was assessed by measuring tracer ^86Rb^+ uptake (NEN® Life Science Products of Boston, Mass.) in experimental groups of at least 15 oocytes. […] Isotonic conditions were generated by supplementing the same solutions with 3.5 g/100 ml sucrose to reach isosmolar conditions for oocytes (˜210 mOsm/kg). Ouabain was added to prevent ^86Rb^+ uptake via the Na^+—K^+-ATPase.
All uptake assays were performed at 32° C. At the end of the uptake period, oocytes were washed five times in ice-cold uptake solution without isotope to remove extracellular fluid tracer. Oocytes were dissolved in 10% SDS, and tracer activity was determined for each oocyte by β-scintillation counting.
To determine the ion transport kinetics of KCC4 and KCC1, ^86Rb^+ uptake experiments were performed in variable concentrations of K^+ and Cl^−. The sensitivity for several inhibitors was assessed by exposing groups of oocytes to the inhibitors at concentrations varying from […] to 2 mM. For these experiments, the desired concentration of the inhibitor was present during both the incubation and uptake periods, except when noted.

[1] = KCC1, counterion fixed at 50 mM, hypotonic
[2] = KCC1, counterion fixed at 50 mM, hypotonic, read-out: apparent Km for extracellular ion
[3] = 2 mM extracellular K+, hypotonic
[4] = 50 mM extracellular K+, hypotonic

Compound: COC[C@@H]([C@H](O)[C@H](O)C(=O)NCC[C@H](C)c1nc(/C=C/C[C@@H]2O[C@]3(C[C@@H](O)[C@@H]2C)O[C@H]([C@H](C[C@H](O)[C@H](C)[C@H](O)[C@H](C)/C=C(C)/C(C)=C/C=C/C(C)=C\C#N)OC)[C@H](OP(=O)(O)O)C3(C)C)co1)N(C)C [calyculin A]
effect on activation of KCC1 by cell swelling (hypotonic): completely prevents the activation

Compound: [K+] [Potassium]
Hill coefficient (KCC1): 1.04±0.13
apparent Vmax for extracellular ion [1]: 39,540±2,199 pmol×oocyte^−1×hour^−1
Km [2]: 25.5 ± 3.2 mM
Km (KCC1, read-out: Potassium Km): 25.5 mM

Compound: CC1(C)C(C=C(Cl)Cl)C1C(=O)OC(C#N)c1cccc(Oc2ccccc2)c1 (centres unmarked) [cypermethrin]
effect on activation of KCC1 by cell swelling (hypotonic): neither okadaic acid, nor cypermethrin prevented this activation

Compound: Cl [Chloride]
Hill coefficient (KCC1): 1.3±0.5
apparent Vmax for extracellular ion [1]: 14,930±2,822 pmol×oocyte^−1×hour^−1
Km [2]: 17.2 ± 8.3 mM
Km (KCC1, read-out: Chloride Km): 17.2 mM

Compound: C=C1[C@@H](O)[C@@H]2O[C@]3(CC[C@H](/C=C/[C@@H](C)[C@@H]4CC(C)=C[C@@]5(O[C@H](C[C@@](C)(O)C(=O)O)CC[C@H]5O)O4)O3)CC[C@H]2O[C@@H]1[C@@H](O)C[C@H](C)[C@H]1O[C@@]2(CCCCO2)CC[C@H]1C [okadaic acid]
effect on activation of KCC1 by cell swelling (hypotonic): neither okadaic acid, nor cypermethrin prevented this activation

KCC1 function remaining [3]: 85±6%
KCC1 function remaining [4]: 13±2%
Compound: O=S(=O)(O)c1cc(N=C=S)ccc1C=Cc1ccc(N=C=S)cc1S(=O)(=O)O [DIDS]

KCC1 function (86Rb+ uptake, % of control) [3]: 9±2%
KCC1 function (86Rb+ uptake, % of control) [4]: 18±8%
Compound: NS(=O)(=O)c1cc(C(=O)O)c(NCc2ccco2)cc1Cl [furosemide]

Compound: [Ba+2].[Cl-].[Cl-] [BaCl2]
KCC1 function, % of control (10 mM BaCl2 in hypotonic uptake medium): 79±4.2%

Compound: CCN1C(=O)C=CC1=O [NEM, N-ethylmaleimide]
reduction of KCC1-induced 86Rb+ uptake (1 mM NEM, hypotonic): 55%
fold activation of KCC1 (1 mM NEM, isotonic): 2.6 fold
86Rb+ uptake in NEM-treated group (KCC1, 1 mM NEM, isotonic): 319±76 pmol×oocyte^−1×hour^−1

KCC1 function (86Rb+ uptake, % of control) [3]: 64±4%
KCC1 function (86Rb+ uptake, % of control) [4]: 74±8%
Compound: NS(=O)(=O)c1cc2c(cc1Cl)NC(C(Cl)Cl)NS2(=O)=O (centres unmarked) [trichlormethiazide]

Compound: HgCl2 [Hg—Cl2]
response of KCC1 to mercury (50 μM HgCl2, hypotonic): resistant

effect on KCC1-induced 86Rb+ uptake (100 μM DIOA, hypotonic): inhibition
Compound: CCCCC1(C2CCCC2)Cc2cc(OCC(=O)O)c(Cl)c(Cl)c2C1=O (centres unmarked) [DIOA]

KCC1 function (86Rb+ uptake, % of control) [3]: 51±12%
KCC1 function (86Rb+ uptake, % of control) [4]: 19±7%
IC50 (KCC1, 10 mM extracellular K+, read-out: apparent half-maximal inhibition (K=0.5) of Cl−-dependent 86Rb+ uptake): ~180 µM
Compound: CCCCNc1cc(C(=O)O)cc(S(N)(=O)=O)c1Oc1ccccc1 [bumetanide]
